A short description of data set [1]: GSH Incubation Assay. Particulars: incubation in human liver microsomes in the presence of GSH. It is filed as in vitro ADME.
Data set [2] is described as follows: HLM Clint (clearance in human liver microsomes). The class given is in vitro ADME.
The target in the next data set is human BACE2 (Homo sapiens (Human), UniProt Q9Y5Z0). The data set is described as follows: BACE2 binding assay (SPA). Particulars: ratio of IC50 from BACE2 and BACE1 binding assays, pH 6.0. From the text: BACE2/BACE1 Binding Ratio:
The BACE1 and BACE2 binding assays measured beta-site amyloid precursor protein-cleaving enzyme (BACE) binding as a decrease in the counts of radioligand bound in a scintillation proximity assay (SPA). Utilizing a radiolabeled small molecule BACE active site binding inhibitor and crude HEK cell membrane preparations over-expressing full length BACE1 or BACE2, the binding of enzyme by test compound was monitored as a reduction of specific counts bound at pH 6.0. Full length human BACE1 or BACE2 over-expressed in HEK cells was prepared by Pfizer scientists. Frozen stock cell paste was reacted in 50 mM sodium acetate buffer (pH=6.0) containing 3H-(4aR,6R,8aS)-8a-(2,4-difluorophenyl)-6-(1-methyl-1H-pyrazol-4-yl)-4,4a,5,6,8,8a-hexahydropyrano[3,4-d][1,3]thiazin-2-amine ligand, SPA bead and 60 μM to 600 pM of test compound in an assay volume of 27 uL. The compound plate also contained positive (BACE inhibitor) and negative (DMSO) control wells. The binding was carried out at room temperature for 30 minutes and then the plates were read on a TriLux Microbeta reader to determine the number of counts bound.

A further data set concerns the target BACE1 (Homo sapiens (Human), UniProt P56817). The data set is described as follows: BACE1 Cell-Free Assay (fluorescence polarization). It is filed as biochemical.
For data set [3], the target named is P-glycoprotein (MDR1-transfected MDCK cell line) (Homo sapiens (Human), UniProt P08183). The data set is described as follows: Pgp Liability MDR1 Er. The conditions noted are these: Papp BA/AB. The class given is in vitro ADME. From the text: (§1) MDR1 Efflux Ratio (MDR Er) from MDR1-transfected MDCK line cell line represents the ratio of permeability, Papp BA/AB. Procedure utilized from (Feng, B.; Mills, J. B.; Davidson, R. E.; Mireles, R. J.; Janiszewski, J. S.; Troutman, M. D.; de Morais, S. M. In vitro P-glycoprotein assays to predict the in vivo interactions of P-glycoprotein with drugs in the central nervous system. Drug Metab. Dispos. 2008, 36, 268-275.

For data set [4], the system named is sAPPβ, the primary cleavage product of BACE1, in H4 human neuroglioma cells over-expressing the wild-type human APP695. The data set can be described thus: sAPPβ Whole-Cell Assay (WCA). The class given is cell-based. The conditions noted are these: 18 h. The method, then:
sAPPβ Whole-Cell Assay (WCA):
sAPPβ, the primary cleavage product of BACE1, was determined in H4 human neuroglioma cells over-expressing the wild-type human APP695. […] The colorimetric reaction was read by an EnVision (PerkinElmer) plate-reader.

The next data set in a line: pKa. It is filed as physicochemical. The conditions noted are these: Measurement determined at Analyza.
The next data set deals with hERG channel (Homo sapiens (Human), UniProt Q12809). The data set can be described thus: hERG Patch Clamp Assay. It is filed as cell-based. The method, then:
After a ˜30 minute recovery period, experiments were initiated.
hERG Potassium Channel Current Recordings and Data Analysis:
The intracellular recording saline was composed of (in […]): 70 KF, 60 KCl, 15 NaCl, 5 EGTA, 5 HEPES, and adjusted to pH 7.2±0.1 with KOH. […] Test pulses were delivered at a frequency of 0.25 Hz. Up to 4 different concentrations were studied on each cell, each exposure lasting 5 minutes or until steady-state effects were observed. […] Using Sophion Qpatch Assay Software, the amplitude of the peak outward hERG current upon repolarizing ramp was measured. Current amplitude was determined by taking the average of the last 5 current peaks under each treatment condition. […] When possible, a concentration-response curve was plotted and the data were fitted using Qpatch software to determine an IC50. The P<0.05 was considered statistically significant.

A short description of data set [5]: GSH Incubation Assay. The class given is in vitro ADME. The method, then:
The test compound (10 μM in DMSO) was incubated with L-glutathione (50 mM, prepared in 100 mM potassium phosphate buffer) at 37° C. for 4 hours and then analyzed by HPLC-UV/MS/MS without work-up. Thermo Accela HPLC and Velos Pro Orbitrap Elite (S/N: SN05189B) operating in positive mode with a source voltage of 3.5 kV with data dependant processing. HPLC with a Phenomenox Kinetex C18, 1.7 μM, 2.1×100 mm. column (P/N: 00D-4475-AN), 5% acetonitrile/95% 0.1% formic acid for 0.5 min then a 7.0 min linear gradient to 40% acetonitrile/60% 0.1% formic acid, 400 μL/min., column temperature 45° C. Product assignments were based on high resolution mass spectrometer fragmentation.

The target of another data set is CYP2D6 (Homo sapiens (Human), UniProt P10635). The data set can be described thus: General Multi-Point Cocktail DDI IC50 Assay. As to the method: General Multi-Point Cocktail DDI IC50 Assay Conditions:
The incubation volume is 0.1 mL, utilizing a 384-well plate format. […] Substrate concentrations are near Km values that had been previously determined and incubation times are selected based on determinations of reaction velocity linearity. […] Samples are directly injected on an HPLC/MS/MS system. A Biomek FX workstation is used for liquid handling and sample incubation.

In a further data set the target is P-glycoprotein (MDR1) (Homo sapiens (Human), UniProt P08183). The data set is described as follows: Pgp Liability MDR1 Er. The class given is in vitro ADME. The conditions noted are these: dog; MDR1-transfected MDCK cell line; ratio of permeability, Papp BA/AB.
From the text: as §1

The mark [6] stands for this setting: Table 4, read-out: BACE1 Cell Free IC50.
The mark [7] stands for this setting: MDR1-transfected MDCK cell line, ratio of permeability.
Setting [8] is: CHO cell transfected with hERG gene, automated Qpatch HT system.

Structures are written as SMILES. Read-outs that look alike come from different tables or passages of the source.

BACE1, sequence (P56817 46-457): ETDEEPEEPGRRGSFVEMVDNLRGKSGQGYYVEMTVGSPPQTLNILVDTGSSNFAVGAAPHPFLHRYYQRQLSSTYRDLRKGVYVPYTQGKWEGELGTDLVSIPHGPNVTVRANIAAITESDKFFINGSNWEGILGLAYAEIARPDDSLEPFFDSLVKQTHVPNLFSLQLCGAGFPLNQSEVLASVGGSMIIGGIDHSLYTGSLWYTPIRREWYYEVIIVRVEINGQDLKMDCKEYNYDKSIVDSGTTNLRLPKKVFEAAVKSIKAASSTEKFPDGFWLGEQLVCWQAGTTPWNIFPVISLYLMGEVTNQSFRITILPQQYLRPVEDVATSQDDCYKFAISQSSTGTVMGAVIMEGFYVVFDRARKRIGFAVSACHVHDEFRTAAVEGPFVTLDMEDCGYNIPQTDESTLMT
P-glycoprotein (MDR1-transfected MDCK cell line), sequence (P08183 whole entry): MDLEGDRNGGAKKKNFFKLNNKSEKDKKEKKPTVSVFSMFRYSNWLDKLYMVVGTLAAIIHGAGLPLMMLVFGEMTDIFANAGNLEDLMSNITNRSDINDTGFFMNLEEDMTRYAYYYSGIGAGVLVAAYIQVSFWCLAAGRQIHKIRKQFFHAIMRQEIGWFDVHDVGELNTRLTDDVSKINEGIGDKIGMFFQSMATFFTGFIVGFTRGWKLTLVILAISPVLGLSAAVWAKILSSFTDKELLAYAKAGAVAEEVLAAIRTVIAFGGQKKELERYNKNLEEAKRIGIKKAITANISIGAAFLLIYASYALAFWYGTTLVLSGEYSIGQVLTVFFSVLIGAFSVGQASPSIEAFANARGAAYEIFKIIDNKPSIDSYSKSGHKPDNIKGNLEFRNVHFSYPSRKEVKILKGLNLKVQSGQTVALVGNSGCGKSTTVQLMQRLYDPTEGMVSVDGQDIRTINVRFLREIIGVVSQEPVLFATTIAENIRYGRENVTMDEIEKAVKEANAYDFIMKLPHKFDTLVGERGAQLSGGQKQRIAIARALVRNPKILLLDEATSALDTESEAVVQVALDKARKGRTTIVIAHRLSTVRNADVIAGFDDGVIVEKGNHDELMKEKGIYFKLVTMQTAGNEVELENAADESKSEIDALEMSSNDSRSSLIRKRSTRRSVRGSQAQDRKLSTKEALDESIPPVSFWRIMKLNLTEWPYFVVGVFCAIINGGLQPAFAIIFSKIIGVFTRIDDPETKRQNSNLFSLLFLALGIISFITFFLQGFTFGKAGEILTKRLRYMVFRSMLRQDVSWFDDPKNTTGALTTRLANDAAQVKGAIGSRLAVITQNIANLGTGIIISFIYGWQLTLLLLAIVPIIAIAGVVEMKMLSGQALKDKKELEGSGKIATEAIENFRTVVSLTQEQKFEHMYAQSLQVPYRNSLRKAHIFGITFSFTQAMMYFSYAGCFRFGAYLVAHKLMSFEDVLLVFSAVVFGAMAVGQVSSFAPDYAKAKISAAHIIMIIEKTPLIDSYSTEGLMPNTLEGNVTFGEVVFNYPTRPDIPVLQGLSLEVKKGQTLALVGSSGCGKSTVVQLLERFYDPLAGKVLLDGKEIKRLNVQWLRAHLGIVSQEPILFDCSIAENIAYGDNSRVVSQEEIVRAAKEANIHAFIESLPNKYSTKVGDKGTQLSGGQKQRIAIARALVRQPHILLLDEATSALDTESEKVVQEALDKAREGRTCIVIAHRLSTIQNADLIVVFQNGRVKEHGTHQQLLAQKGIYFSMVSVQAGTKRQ
hERG channel, sequence (Q12809 whole entry): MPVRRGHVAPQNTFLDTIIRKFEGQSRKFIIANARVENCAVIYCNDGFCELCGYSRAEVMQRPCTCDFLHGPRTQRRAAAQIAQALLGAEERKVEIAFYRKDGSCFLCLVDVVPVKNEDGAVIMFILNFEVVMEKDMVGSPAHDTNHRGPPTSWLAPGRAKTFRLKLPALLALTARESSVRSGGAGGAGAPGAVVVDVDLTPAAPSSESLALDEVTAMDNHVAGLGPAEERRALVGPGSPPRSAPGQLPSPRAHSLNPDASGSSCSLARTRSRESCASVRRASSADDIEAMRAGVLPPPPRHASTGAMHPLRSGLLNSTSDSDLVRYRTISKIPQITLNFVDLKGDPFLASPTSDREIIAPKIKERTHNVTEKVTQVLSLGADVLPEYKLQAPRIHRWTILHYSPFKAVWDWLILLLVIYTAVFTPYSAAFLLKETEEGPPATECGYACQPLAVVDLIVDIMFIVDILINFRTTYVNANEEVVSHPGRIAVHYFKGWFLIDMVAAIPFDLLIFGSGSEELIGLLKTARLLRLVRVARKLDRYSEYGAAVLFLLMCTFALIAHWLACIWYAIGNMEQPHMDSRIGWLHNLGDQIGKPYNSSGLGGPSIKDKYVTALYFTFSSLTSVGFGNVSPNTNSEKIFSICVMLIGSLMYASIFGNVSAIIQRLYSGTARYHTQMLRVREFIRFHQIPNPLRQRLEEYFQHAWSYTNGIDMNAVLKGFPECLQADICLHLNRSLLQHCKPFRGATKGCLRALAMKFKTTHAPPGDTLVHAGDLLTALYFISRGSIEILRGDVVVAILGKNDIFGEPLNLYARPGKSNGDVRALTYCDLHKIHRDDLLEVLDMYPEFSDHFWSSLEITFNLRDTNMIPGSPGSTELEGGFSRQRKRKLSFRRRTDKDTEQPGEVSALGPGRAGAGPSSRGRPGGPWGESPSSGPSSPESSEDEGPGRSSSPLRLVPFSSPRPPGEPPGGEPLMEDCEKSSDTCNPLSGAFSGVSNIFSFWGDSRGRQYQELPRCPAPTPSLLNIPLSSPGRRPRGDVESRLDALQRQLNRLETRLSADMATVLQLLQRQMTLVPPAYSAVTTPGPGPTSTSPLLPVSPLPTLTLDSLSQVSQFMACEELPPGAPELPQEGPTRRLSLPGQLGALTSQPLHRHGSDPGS
human BACE2, sequence (Q9Y5Z0 63-518): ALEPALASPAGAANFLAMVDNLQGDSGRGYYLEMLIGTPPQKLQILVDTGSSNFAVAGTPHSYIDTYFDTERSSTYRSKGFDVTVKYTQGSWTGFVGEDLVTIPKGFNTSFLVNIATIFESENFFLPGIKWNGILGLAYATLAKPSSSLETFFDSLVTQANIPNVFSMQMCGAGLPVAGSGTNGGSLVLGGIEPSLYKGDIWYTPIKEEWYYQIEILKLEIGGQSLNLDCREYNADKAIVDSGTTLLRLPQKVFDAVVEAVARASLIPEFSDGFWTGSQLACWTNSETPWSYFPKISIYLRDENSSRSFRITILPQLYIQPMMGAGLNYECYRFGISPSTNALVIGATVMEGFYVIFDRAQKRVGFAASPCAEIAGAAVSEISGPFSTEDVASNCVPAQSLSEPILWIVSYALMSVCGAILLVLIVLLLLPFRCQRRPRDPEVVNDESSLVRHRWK
CYP2D6, sequence (P10635 whole entry): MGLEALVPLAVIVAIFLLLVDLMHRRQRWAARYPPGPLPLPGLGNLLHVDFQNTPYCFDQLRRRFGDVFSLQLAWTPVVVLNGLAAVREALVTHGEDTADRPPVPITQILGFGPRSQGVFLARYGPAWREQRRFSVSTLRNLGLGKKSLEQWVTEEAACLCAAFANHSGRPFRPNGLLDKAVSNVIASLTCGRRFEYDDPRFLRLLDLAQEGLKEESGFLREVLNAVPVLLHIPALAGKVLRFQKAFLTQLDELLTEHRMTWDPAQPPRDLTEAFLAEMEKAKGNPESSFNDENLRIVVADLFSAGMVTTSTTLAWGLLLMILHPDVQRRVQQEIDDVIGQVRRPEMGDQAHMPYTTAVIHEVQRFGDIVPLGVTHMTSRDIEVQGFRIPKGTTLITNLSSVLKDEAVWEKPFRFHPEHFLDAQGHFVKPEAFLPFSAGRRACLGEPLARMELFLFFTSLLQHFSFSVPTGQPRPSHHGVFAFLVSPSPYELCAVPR
P-glycoprotein (MDR1), sequence (P08183 whole entry): as the sequence (P08183 whole entry) above

Turning to `C[C@H]1C[C@H]2CSC(N)=N[C@@]2(c2cc(NC(=O)c3ccc(C#N)cn3)cs2)CO1` [Comparator 5], in the data set “GSH Incubation Assay [1]”, the “formation of GSH adducts” value was “formation of chemical adducts”. In “Aniline structural alert”, the “Aniline Structural Alert” value was “No”.
With `NC1=N[C@@]2(c3cc(NC(=O)c4ccc(OC(F)F)cn4)ccc3F)CO[C@@H](C(F)(F)F)C[C@H]2CS1` [Comparator 6, reference compound], the “HLM CLint” value in data set [2] is given as below 12.8 mL/min/kg. In addition, the “BACE2/BACE1 Binding Ratio” value on human BACE2 is listed as 1.0. For the same molecule, the IC50 was 6 nM at BACE1 (setting [6]) and below 1 nM in data set [4]. In [3] (setting [7]), the “Pgp liability MDR1 Er” value is 3.2. In “pKa”, the pKa worked out at 7.7. Moreover, the “Aniline Structural Alert” value in “Aniline structural alert” is “Yes”.
Consider `C[C@H]1C[C@H]2CSC(N)=N[C@@]2(c2cc(NC(=O)c3ccc(Cl)cn3)ccc2F)CO1` [Comparator 7, reference compound], for which the “HLM CLint” value in [2] was 34.4 mL/min/kg^. For the same molecule, the “BACE2/BACE1 Binding Ratio” value on human BACE2 worked out at 1.0. For the same molecule, the IC50 on BACE1 (setting [6]) is 1 nM; in [4], below 1 nM; against hERG channel (setting [8]), 200 nM. Further, the “Pgp liability MDR1 Er” value in data set [3] (setting [7]) was found to be 3.03. The molecule further gave a pKa in the data set “pKa” of 8.2. Further, the “Aniline Structural Alert” value in the data set “Aniline structural alert” is listed as “Yes”.
Consider `C[C@H]1C[C@H]2CSC(N)=N[C@@]2(c2nc(NC(=O)c3cnc(OC(F)F)cn3)cs2)CO1` [Example 2, N-{2-[(4aR,6S,8aR)-2-amino-6-methyl-4,4a,5,6-tetrahydropyrano[3,4-d][1,3]thiazin-8a(8H)-yl]-1,3-thiazol-4-yl}-5-(difluoromethoxy)pyrazine-2-carboxamide], for which the “HLM CLint” value in data set [2] is on record as below 8 mL/min/kg. For the same molecule, the intrinsic metabolic clearance (CLint scaled) in [2] (human) was below 8 mL/min/kg. The IC50 at BACE1 (setting [6]) is 73 nM; at BACE1 (geometric mean of 2-4 determinations unless otherwise indicated (b: ≧5; c: single determination), read-out: BACE1 Cell-free Assay IC50) it was 73 nM; at CYP2D6, above 30000 nM; against CYP2D6 (human, microsomes, pH 7.4) it was above 30000 nM; in [4] (Homo sapiens) it was 7 nM; on hERG channel (setting [8]), 23600 nM. Further, the IC50 at hERG channel (CHO cells transfected with hERG) is above 5000 nM. Moreover, the “Observed GSH adducts” value in “GSH Incubation Assay [5]” (Incubations with glutathione (50 mM) at 37° C. in buffer for 4 hours) was “Negative”. Further, the “formation of GSH adducts” value in “GSH Incubation Assay [5]” (following incubations) is reported as “not detected”. The “Pgp liability MDR1 Er” value in [3] (MDR1-transfected MDCK) was below 2.5. Moreover, on P-glycoprotein (MDR1), the efflux ratio came to 1.8. For the same molecule, the pKa in the data set “pKa” (read-out: pKa) came out at 6.8. Further, the “Aniline Structural Alert” value in “Aniline structural alert” is “No”.

The values above are taken from patent publication US9315520B2, “2-amino-6-methyl-4,4a,5,6-tetrahydropyrano[3,4-d][1,3]thiazin-8a(8H)-yl-1,3-thiazol-4-yl amides” (Pfizer Inc., priority 2014, dated 2016).
